Test results published in ChEMBL document CHEMBL4422692, “Plant-Based Modulators of Endocannabinoid Signaling” (J Nat Prod, 2019).
Each block holds one compound with its values, some of them ahead of it.

Columns and labels:
[1] = biological target: T1, Cannabinoid receptor 1 (Homo sapiens, UniProt P21554); test: Displacement of [3H]-CP55940 from recombinant human CB1 receptor expressed in HEK293-EBNA cell membranes after 90 mins by scintillation counting method
[2] = biological target: T2, Cannabinoid receptor 2 (Homo sapiens, UniProt P34972); test: Displacement of [3H]-CP55940 from recombinant human CB2 receptor expressed in HEK293 cell membranes after 90 mins by scintillation counting method
T2 sequence (P34972 whole entry): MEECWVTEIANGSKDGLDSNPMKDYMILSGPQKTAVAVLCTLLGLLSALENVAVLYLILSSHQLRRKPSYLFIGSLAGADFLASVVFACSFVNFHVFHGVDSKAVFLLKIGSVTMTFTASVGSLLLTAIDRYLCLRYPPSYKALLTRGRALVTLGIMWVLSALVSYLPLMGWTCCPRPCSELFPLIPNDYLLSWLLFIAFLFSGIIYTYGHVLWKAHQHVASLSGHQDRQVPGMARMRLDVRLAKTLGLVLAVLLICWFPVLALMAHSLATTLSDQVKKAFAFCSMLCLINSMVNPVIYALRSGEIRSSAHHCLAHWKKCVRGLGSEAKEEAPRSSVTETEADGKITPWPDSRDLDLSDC

[3] = biological target: Cannabinoid receptor 1 (Rattus norvegicus, UniProt P20272); test: Displacement of [3H]-CP55940 from CB1 receptor in rat […] membranes after 60 mins by scintillation counting method; format: cell membranes
Chain of Cannabinoid receptor 1 (Rattus norvegicus, UniProt P20272) (P20272 whole entry): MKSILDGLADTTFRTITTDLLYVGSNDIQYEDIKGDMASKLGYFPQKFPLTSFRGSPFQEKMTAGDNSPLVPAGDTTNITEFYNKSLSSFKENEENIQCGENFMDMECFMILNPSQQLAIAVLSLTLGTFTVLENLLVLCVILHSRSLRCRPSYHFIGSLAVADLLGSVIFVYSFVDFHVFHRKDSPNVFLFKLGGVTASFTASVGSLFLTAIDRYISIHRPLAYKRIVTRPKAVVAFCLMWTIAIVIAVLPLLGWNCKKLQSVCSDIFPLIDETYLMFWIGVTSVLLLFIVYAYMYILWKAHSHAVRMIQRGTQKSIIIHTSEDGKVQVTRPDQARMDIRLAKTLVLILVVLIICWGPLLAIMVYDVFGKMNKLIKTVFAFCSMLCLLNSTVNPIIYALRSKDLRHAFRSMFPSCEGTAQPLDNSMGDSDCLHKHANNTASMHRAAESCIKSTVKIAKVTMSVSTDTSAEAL

[4] = biological target: Cannabinoid receptor 2 (Mus musculus, UniProt P47936); test: Displacement of [3H]-CP55940 from CB2 receptor in mouse spleen membranes after 60 mins by scintillation counting method; format: cell membranes
Chain of Cannabinoid receptor 2 (Mus musculus, UniProt P47936) (P47936 whole entry): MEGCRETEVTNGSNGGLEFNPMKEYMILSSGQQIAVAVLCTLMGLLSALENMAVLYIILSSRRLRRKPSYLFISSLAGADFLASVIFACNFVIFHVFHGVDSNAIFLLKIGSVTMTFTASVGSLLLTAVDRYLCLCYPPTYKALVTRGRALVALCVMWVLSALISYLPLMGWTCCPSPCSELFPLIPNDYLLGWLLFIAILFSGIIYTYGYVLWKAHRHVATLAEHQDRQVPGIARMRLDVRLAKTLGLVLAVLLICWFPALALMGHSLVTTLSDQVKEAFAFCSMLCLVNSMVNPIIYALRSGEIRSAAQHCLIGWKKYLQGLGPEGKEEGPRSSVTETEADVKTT

[5] = biological target: T2, Cannabinoid receptor 2; test: Displacement of [3H]-CP55940 from recombinant CB2 receptor (unknown origin) expressed in cell membranes after 90 mins by scintillation counting method
[6] = biological target: T2, Cannabinoid receptor 2; test: Displacement of [3H]-CP55940 from recombinant human CB2 receptor expressed in HEK293 cell membranes measured after 90 mins
[7] = biological target: T1, Cannabinoid receptor 1; test: Displacement of [3H]-CP55940 from CB1 receptor (unknown origin)
[8] = biological target: T2, Cannabinoid receptor 2; test: Displacement of [3H]-CP55940 from CB2 receptor (unknown origin)
[9] = biological target: T1, Cannabinoid receptor 1; test: Displacement of [3H]-CP55940 from recombinant human CB1 receptor measured after 2 hrs by liquid scintillation counting method
[10] = system: U-937; test: Inhibition of [14C]-AEA uptake in human U937 cells preincubated for 15 mins followed by [14C]-AEA addition and measured after 5 mins by scintillation counting method; format: functional, cell-based
[11] = biological target: Fatty acid-binding protein 5 (Homo sapiens, UniProt Q01469); test: Displacement of NBD-Stearate from recombinant human FABP5 measured after 30 mins by fluorescence polarization assay
Chain of Fatty acid-binding protein 5 (Q01469 whole entry): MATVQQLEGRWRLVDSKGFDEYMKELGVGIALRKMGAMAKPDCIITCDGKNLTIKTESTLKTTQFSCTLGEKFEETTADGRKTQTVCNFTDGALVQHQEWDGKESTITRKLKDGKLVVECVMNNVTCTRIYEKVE

[12] = biological target: T3, Fatty-acid amide hydrolase 1 (Homo sapiens, UniProt O00519); test: Inhibition of FAAH in human U937 cell homogenates using [14C]-AEA as substrate preincubated for 15 mins followed by substrate addition and measured after 15 mins by liquid scintillation counting method
T3 sequence (O00519 whole entry): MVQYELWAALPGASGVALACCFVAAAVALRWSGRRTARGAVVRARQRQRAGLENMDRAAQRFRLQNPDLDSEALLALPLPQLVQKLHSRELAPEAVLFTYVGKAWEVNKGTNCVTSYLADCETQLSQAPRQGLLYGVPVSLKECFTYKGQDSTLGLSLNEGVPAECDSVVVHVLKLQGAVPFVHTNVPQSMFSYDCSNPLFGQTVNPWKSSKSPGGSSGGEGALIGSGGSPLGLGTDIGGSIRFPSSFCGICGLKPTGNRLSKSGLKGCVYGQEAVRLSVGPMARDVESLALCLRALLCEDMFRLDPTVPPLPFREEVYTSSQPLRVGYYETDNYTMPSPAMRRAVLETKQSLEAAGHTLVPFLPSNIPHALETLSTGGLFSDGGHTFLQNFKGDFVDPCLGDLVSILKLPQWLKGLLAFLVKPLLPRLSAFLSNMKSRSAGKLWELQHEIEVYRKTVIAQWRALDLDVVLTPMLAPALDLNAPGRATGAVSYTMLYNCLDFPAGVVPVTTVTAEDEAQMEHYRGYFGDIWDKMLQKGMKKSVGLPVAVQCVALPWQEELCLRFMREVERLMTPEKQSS

[13] = biological target: T2, Cannabinoid receptor 2; test: Displacement of [3H]-CP55940 from recombinant human CB2 receptor measured after 2 hrs by liquid scintillation counting method
[14] = biological target: T4, Fatty-acid amide hydrolase 1 (Homo sapiens) (UniProt O00519); test: Inhibition of FAAH in human U937 cell homogenates at 100 uM using [14C]-AEA as substrate preincubated for 15 mins followed by substrate addition and measured after 15 mins by liquid scintillation counting method relative to control
T4 sequence (whole entry): T3 sequence (O00519 whole entry)

[15] = biological target: T5, Monoglyceride lipase (Homo sapiens, UniProt Q99685); test: Inhibition of MAGL in human U937 cell homogenates using [3H]-2OG as substrate preincubated for 15 mins followed by substrate addition and measured after 15 mins by liquid scintillation counting method
T5 sequence (Q99685 whole entry): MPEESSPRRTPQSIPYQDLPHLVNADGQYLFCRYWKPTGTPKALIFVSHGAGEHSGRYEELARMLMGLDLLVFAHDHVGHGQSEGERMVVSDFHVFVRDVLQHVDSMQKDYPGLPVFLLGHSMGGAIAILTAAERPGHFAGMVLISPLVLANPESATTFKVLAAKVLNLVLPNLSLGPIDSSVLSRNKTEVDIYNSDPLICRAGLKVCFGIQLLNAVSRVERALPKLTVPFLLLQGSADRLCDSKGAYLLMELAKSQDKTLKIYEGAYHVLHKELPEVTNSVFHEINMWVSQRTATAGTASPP

T1 sequence (P21554 whole entry): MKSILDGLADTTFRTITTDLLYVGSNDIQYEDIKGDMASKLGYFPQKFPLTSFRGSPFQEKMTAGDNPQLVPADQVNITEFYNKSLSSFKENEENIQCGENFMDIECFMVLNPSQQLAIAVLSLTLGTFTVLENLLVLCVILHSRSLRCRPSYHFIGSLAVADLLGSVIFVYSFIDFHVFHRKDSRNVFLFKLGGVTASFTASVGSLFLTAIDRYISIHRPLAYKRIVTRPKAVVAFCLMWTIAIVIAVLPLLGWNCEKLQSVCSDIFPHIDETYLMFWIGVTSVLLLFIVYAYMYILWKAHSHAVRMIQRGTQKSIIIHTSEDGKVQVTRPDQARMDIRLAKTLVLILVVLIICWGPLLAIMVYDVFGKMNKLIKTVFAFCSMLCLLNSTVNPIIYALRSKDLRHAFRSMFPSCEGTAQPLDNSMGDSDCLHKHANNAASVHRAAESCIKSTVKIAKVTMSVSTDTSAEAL

Ki [1]: > 40 µM | Ki [2]: > 40 µM
Structure (SMILES): C#CC#CCCCC/C=C/C(=O)NCC(C)C

Ki [5]: 4.53 µM
Structure (SMILES): C/C=C\C=C\CC/C=C/C=C/C(=O)NCC(C)C

Ki [3]: 11 µM | Ki [4]: 8.38 µM
Structure (SMILES): CCC/C=C\CC/C=C/C=C/C(=O)NCC(C)C

Ki [5]: 9.04 µM
Structure (SMILES): C/C=C/C=C\CC/C=C/C=C/C(=O)NCC(C)C

Ki [1]: 6.21 µM | Ki [2]: 0.057 µM
Structure (SMILES): C/C=C\C=C/CC/C=C/C=C/C(=O)NCC(C)C

Ki [6]: 0.828 µM
Structure (SMILES): CC(C)=CCC/C(C)=C/Cc1c(O)cc(CCc2ccccc2)c(C(=O)O)c1O

Ki [7]: 47.3 µM | Ki [8]: 95.6 µM
Structure (SMILES): O=C(O[C@@H]1Cc2c(O)cc(O)cc2O[C@@H]1c1ccc(O)c(O)c1)c1cc(O)c(O)c(O)c1 [EPICATECHIN GALLATE]

More lines, now with the values behind:

Structure (SMILES): CC#CC#CCCCC/C=C/C(=O)NCC(C)CC (stereo unspecified)
Ki [3]: 6.73 µM | Ki [4]: 7.2 µM

Structure (SMILES): CC#CC#CCCCC/C=C/C=C/C(=O)NCC(C)C
Ki [3]: 24.6 µM | Ki [4]: 1.87 µM

Structure (SMILES): Oc1cc(O)c2c(c1)O[C@H](c1cc(O)c(O)c(O)c1)[C@H](O)C2 [EPIGALLOCATECHIN]
Ki [7]: 35.7 µM | Ki [8]: 361 µM

Structure (SMILES): O=C(O[C@@H]1Cc2c(O)cc(O)cc2O[C@@H]1c1cc(O)c(O)c(O)c1)c1cc(O)c(O)c(O)c1 [EPIGALOCATECHIN GALLATE]
Ki [8]: 42.8 µM

Structure (SMILES): CC(C)CNC(=O)/C=C/C=C/CCCCCC/C=C/c1ccc2c(c1)OCO2 [GUINEENSINE]
Ki [9]: > 20 µM | Efficacy [10]: 65% | EC50 ([10]; Homo sapiens, U-937): 0.29 µM | Ki [11]: > 100 µM | IC50 [12]: 46.8 µM | Ki [13]: 38.3 µM | inhibition [14]: 59% | Ki [15]: > 100 µM
